According to patent US11680068B2, “Compounds useful as RET inhibitors” (Cancer Research Technology Limited, priority 2017, dated 2023):

What follows are molecules tested against RET (Homo sapiens (Human), UniProt P07949) (assay: RET enzyme assay (CisBio HTRF kinEASE)). Conditions: tested compounds listed as lacking activity.
Format: biochemical

Sequence of RET (P07949 658-1114): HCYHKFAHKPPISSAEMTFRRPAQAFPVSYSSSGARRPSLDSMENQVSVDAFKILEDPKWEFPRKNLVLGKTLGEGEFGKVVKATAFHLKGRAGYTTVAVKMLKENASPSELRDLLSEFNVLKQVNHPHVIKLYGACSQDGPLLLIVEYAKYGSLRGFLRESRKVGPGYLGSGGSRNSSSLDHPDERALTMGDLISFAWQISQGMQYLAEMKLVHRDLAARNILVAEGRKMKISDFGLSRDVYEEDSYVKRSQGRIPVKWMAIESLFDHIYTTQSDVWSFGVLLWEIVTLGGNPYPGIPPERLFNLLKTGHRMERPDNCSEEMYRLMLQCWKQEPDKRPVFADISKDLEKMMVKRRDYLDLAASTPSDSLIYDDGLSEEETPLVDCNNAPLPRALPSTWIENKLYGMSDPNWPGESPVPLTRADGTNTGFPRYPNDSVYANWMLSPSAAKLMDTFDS

Desired activity in the assays described in Example 51, did not exhibit the desired activity:
CNC(=O)c1cc2ccc(-c3nn(CC(=O)N(C)C)c4ncnc(N)c34)cc2[nH]1 [6-[4-amino-1-[2-(dimethylamino)-2-oxo-ethyl]pyrazolo[3,4-d]pyrimidin-3-yl]-N-methyl-1H-indole-2-carboxamide]
CCNC(=O)c1cc2ccc(-c3nn([C@H]4CC[C@@H](O)C4)c4ncnc(NC)c34)cc2[nH]1 [N-ethyl-6-[1-[(1S,3R)-3-hydroxycyclopentyl]-4-(methylamino)pyrazolo[3,4-d]pyrimidin-3-yl]-1H-indole-2-carboxamide]
CC(C)(C)n1nc(-c2ccc3cc(C(=O)O)[nH]c3c2)c2c(N)ncnc21 [6-(4-amino-1-tert-butyl-pyrazolo[3,4-d]pyrimidin-3-yl)-1H-indole-2-carboxylic acid]
CNC(=O)c1cc2ccc(-c3n[nH]c4ncnc(N)c34)cc2[nH]1 [6-(4-amino-1H-pyrazolo[3,4-d]pyrimidin-3-yl)-N-methyl-1H-indole-2-carboxamide]
CC(C)(C)n1nc(-c2ccc3cc(C(=O)Nc4nnc(C(F)(F)F)s4)[nH]c3c2)c2c(N)ncnc21 [6-(4-amino-1-tert-butyl-pyrazolo[3,4-d]pyrimidin-3-yl)-N-[5-(trifluoromethyl)-1,3,4-thiadiazol-2-yl]-1H-indole-2-carboxamide]
CNC(=O)c1cc2ccc(-c3nn(CCO)c4ncnc(N)c34)cc2[nH]1 [6-[4-amino-1-(2-hydroxyethyl)pyrazolo[3,4-d]pyrimidin-3-yl]-N-methyl-1H-indole-2-carboxamide]
CNC(=O)c1cc2ccc(-c3nn(CCC(=O)N(C)C)c4ncnc(N)c34)cc2[nH]1 [6-[4-amino-1-[3-(dimethylamino)-3-oxo-propyl]pyrazolo[3,4-d]pyrimidin-3-yl]-N-methyl-1H-indole-2-carboxamide]
